Laboratory results: ChEMBL document CHEMBL5465560, “Selectivity Literature for EUbOPEN Chemogenomic Library” (2024)
One block for each molecule: values may come before it.

Tests used:
[1] = target: T1, Histone-lysine N-methyltransferase EHMT1 (Homo sapiens) (UniProt Q9H9B1); details: at 1 µM
T1 sequence (whole entry): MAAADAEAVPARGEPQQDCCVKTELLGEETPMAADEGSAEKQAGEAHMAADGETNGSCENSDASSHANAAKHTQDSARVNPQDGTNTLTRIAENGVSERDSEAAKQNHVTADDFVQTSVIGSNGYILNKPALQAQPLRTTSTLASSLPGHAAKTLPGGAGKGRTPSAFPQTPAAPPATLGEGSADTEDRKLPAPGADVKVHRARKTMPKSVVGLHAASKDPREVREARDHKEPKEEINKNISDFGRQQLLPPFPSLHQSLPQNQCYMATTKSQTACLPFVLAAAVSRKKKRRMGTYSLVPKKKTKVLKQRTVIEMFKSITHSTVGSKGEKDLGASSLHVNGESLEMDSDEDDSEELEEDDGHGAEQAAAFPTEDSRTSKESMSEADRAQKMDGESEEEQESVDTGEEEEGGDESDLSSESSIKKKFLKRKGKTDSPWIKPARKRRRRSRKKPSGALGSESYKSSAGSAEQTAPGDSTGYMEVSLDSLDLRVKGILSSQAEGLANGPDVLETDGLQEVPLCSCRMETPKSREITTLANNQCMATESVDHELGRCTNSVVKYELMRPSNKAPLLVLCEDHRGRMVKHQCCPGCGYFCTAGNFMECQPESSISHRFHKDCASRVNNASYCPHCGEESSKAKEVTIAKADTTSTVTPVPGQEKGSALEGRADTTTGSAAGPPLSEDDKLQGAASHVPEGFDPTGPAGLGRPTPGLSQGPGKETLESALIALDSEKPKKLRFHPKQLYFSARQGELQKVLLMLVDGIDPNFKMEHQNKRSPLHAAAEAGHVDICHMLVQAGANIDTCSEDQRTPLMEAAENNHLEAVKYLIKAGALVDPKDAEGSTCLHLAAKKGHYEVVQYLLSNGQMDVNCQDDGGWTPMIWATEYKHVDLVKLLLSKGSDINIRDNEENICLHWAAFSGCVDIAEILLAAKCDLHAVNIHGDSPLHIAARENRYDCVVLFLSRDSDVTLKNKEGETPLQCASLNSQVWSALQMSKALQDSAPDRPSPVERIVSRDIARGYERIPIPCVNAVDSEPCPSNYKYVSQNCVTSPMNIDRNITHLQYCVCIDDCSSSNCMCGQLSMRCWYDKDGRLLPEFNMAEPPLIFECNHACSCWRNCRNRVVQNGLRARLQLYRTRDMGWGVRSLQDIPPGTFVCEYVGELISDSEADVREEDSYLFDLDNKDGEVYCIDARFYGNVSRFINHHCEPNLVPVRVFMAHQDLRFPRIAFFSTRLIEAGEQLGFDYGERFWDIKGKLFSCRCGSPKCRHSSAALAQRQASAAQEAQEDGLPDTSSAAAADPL

[2] = target: T2, Serine/threonine-protein kinase D2 (Homo sapiens) (UniProt Q9BZL6); experiment: Selectivity interaction (ActivX KiNativ screen (kinase selectivity in THP-1 cell lysates)) EUB0000639a PRKD2; format: subcellular; details: lysate, at 0.01 µM
T2 sequence (whole entry): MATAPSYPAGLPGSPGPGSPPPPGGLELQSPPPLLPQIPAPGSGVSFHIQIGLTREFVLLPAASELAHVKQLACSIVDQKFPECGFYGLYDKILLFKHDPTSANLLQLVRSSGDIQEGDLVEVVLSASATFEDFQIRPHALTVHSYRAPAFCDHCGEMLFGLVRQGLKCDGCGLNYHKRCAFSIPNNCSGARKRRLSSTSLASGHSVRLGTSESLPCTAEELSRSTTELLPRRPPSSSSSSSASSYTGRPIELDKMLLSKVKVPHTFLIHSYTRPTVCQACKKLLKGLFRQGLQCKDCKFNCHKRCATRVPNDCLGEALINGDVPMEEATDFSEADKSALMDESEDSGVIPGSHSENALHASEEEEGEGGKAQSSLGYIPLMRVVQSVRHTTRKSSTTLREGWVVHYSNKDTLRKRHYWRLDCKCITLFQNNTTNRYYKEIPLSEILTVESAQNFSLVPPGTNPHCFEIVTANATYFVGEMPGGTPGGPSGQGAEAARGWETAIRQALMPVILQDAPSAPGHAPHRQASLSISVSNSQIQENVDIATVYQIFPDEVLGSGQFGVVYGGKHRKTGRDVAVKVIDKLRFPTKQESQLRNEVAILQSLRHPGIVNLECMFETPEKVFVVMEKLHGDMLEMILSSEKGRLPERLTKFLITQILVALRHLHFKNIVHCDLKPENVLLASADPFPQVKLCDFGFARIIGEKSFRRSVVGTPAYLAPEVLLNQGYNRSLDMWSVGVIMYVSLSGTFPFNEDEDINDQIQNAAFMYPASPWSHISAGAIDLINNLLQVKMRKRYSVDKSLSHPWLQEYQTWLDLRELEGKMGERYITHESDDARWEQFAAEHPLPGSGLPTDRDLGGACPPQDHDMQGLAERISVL

[3] = target: T3, Cyclin-dependent kinase 11A (Homo sapiens) (UniProt Q9UQ88); experiment: Selectivity interaction (KinomeScan (DiscoverX)) EUB0001049a CDK11A; details: at 1 µM
T3 sequence (whole entry): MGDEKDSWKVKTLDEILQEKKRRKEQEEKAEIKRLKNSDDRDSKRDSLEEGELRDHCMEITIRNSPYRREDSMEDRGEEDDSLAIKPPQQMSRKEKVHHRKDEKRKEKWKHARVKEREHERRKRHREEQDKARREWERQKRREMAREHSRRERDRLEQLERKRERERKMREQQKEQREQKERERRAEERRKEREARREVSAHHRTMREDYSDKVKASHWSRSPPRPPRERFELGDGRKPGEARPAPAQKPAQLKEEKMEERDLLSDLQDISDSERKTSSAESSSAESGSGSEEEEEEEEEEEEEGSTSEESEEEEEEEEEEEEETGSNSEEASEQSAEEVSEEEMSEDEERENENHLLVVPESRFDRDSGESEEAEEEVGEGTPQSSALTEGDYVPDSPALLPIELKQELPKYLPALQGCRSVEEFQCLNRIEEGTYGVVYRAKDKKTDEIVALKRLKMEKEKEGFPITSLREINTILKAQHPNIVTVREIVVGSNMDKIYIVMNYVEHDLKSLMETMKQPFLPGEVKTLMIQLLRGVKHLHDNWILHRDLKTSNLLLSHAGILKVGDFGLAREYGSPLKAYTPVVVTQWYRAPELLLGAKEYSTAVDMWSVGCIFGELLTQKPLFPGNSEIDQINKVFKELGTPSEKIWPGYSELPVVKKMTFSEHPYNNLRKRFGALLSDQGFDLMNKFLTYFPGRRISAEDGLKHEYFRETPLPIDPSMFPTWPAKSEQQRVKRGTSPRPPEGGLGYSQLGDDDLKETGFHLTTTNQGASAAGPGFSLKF

[4] = target: Serine/threonine-protein kinase 16 (Homo sapiens, UniProt O75716); experiment: Selectivity interaction (KinomeScan (DiscoverX)) EUB0001868a STK16; details: at 1 µM
Chain of Serine/threonine-protein kinase 16 (O75716 whole entry): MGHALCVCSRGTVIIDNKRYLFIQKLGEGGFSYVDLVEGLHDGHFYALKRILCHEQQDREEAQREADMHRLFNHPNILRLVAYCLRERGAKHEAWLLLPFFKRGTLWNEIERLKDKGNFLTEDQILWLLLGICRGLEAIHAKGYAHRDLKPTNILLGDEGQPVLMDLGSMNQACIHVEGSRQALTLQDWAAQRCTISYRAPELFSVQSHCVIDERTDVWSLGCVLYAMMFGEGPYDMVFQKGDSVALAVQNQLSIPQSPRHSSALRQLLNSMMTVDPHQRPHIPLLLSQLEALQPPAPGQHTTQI

% activity [1]: > 90%
Structure (SMILES): CNCCN1CCC(c2cc(CN(C)C(=O)c3cccc(Oc4ccccc4)c3)ccn2)CC1

% of inhibition [2]: -7.2%
Structure (SMILES): CC[C@@H]1[C@H](F)C(=O)N[C@@H]1COc1nccc2cc(C(N)=O)c(OC)cc12 [ZIMLOVISERTIB]

Structure (SMILES): COc1cc(Nc2nc(C)cc(-c3cnn4nc(OC)ccc34)n2)cc(C(F)(F)F)c1
% of control [3]: 83%

% of control [4]: 23%
Structure (SMILES): Cc1cc(-c2ccnc(Nc3cnn(C)c3)n2)ccc1CNC(=O)N1CC(OC(C)C)C1
